Melting point data for five compounds are collected here from patent US20060009487A1, “Heterocyclic derivatives for treatment of hyperlipidemia and related diseases” (priority 2004, published 2006).

For `CCOC(=O)c1cnc2ccccc2c1NCCCCCNc1ncccn1` [E6, n=4, R═CH2CH3, 4-[5-(Pyrimidin-2-ylamino)-pentylamino]-quinoline-3-carboxylic acid ethyl ester], the melting point was 108 °C. `Cc1nc2ccccc2c(-c2ccccc2)c1CC(NC(=O)CCCC(=O)O)C(=O)NCCCCN` (centres unmarked) [D9, 4-[1-(4-Amino-butylcarbamoyl)-2-(2-methyl-4-phenyl-quinolin-3-yl)-ethylcarbamoyl]-butyric acid] showed a melting point of 129 °C. With `N=C(N)NCCNc1c(C(=O)O)cnc2ccccc12` [E5, n=1, 4-(2-Guanidino-ethylamino)-quinoline-3-carboxylic acid] the figure was 267 °C; with `Nc1c(C(=O)O)cnc2ccccc12` [F3, 4-Amino-quinoline-3-carboxylic acid], 305 °C; with `O=C(O)c1cnc2ccccc2c1NCCCNc1ncccn1` [E6, n=2, R=H, 4-[3-(Pyrimidin-2-yl-amino)-propylamino]-quinoline-3-carboxylic acid], 269 °C.
